Data published in patent US20230085307A1, “PYRIDAZINONE COMPOUND AND HERBICIDE” (NISSAN CHEMICAL CORPORATION, priority 2019, published 2023).

Tests used:
[1] = system: windgrass; assay: Test Example 4: herbicidal effect by soil treatment (Table 19, symbol L); type: in vivo, windgrass (Apera spica-venti); conditions: amount of applied herbicide 320 g/ha
In short: (§1)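 In this soil treatment, the formulated compound reached the seeds only through the soil: seeds were buried about 1.5 cm deep in sterilized diluvial soil, then the diluted emulsion was sprayed over the surface. After three weeks at 25° C. to 30° C. in a greenhouse, effects were graded on criteria from an earlier test.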

[2] = system: velvetleaf; assay: Test Example 5: herbicidal effect by foliage application, plastic box (Table 20, symbol M); type: in vivo, velvetleaf (Abutilon theophrasti); conditions: foliage application after 14-day growth, evaluated three weeks after application; for Herbicidal effect by foliage application, M: velvetleaf: amount of applied herbicide 320 g/ha
In short: (§2)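 Plants were sown into sterilized diluvial soil under about 1.5 cm cover and kept in a greenhouse at 25° C. to 30° C. Fourteen days on, foliage received an even spray of the diluted emulsion. Herbicidal or crop effect was judged three weeks afterwards.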

[3] = system: late watergrass; assay: Test Example 1: herbicidal activity, application before weed generation under submerged conditions (Table 16, symbol A); type: in vivo, late watergrass (Echinochloa oryzicola); conditions: amount of applied herbicide 320 g/ha
In short: (§3)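 Alluvial soil was flooded to 4 cm depth, weed seeds were sown mixed and 2.5-leaf rice seedlings were transplanted. On sowing day, the compound's emulsion, diluted in water to a set dose, was applied to the water surface. Plants grew at 25–30 °C and were scored 0–5 after three weeks.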

[4] = system: windgrass; assay: Test Example 5: herbicidal effect by foliage application, plastic box (Table 20, symbol L); type: in vivo, windgrass (Apera spica-venti); conditions: foliage application after 14-day growth, evaluated three weeks after application; for Herbicidal effect by foliage application, L: windgrass: amount of applied herbicide 320 g/ha
In short: as §2

[5] = system: persian speedwell; assay: Test Example 5: herbicidal effect by foliage application, plastic box (Table 20, symbol R); type: in vivo, Persian speedwell (Veronica persica); conditions: foliage application after 14-day growth, evaluated three weeks after application; for Herbicidal effect by foliage application, R: persian speedwell: amount of applied herbicide 320 g/ha
In short: as §2

[6] = system: lambsquarters; assay: Test Example 5: herbicidal effect by foliage application, plastic box (Table 20, symbol O); type: in vivo, lambsquarters (Chenopodium album); conditions: foliage application after 14-day growth, evaluated three weeks after application; for Herbicidal effect by foliage application, O: lambsquarters: amount of applied herbicide 320 g/ha
In short: as §2

[7] = system: barnyard grass; assay: Test Example 4: herbicidal effect by soil treatment (Table 19, symbol H); type: in vivo, barnyard grass (Echinochloa crus-galli); conditions: amount of applied herbicide 320 g/ha
In short: as §1

[8] = system: southern crabgrass; assay: Test Example 5: herbicidal effect by foliage application, plastic box (Table 20, symbol F); type: in vivo, southern crabgrass (Digitaria ciliaris); conditions: foliage application after 14-day growth, evaluated three weeks after application; for Herbicidal effect by foliage application, F: southern crabgrass: amount of applied herbicide 320 g/ha
In short: as §2

[9] = system: barnyard grass; assay: Test Example 3: herbicidal effect by foliage application, Wagner pot (Table 18, symbol H); type: in vivo, barnyard grass (Echinochloa crus-galli); conditions: 320 g/ha
In short: (§4)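 Plants were sown in alluvial soil held under 0.1–0.5 cm standing water and grown 14 days in a greenhouse at 25–30 °C. An emulsifiable formulation, water-diluted to the set dose, was then sprayed onto the foliage, and effects were scored three weeks later using previously defined criteria.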

[10] = system: green foxtail; assay: Test Example 5: herbicidal effect by foliage application, plastic box (Table 20, symbol G); type: in vivo, green foxtail (Setaria viridis); conditions: foliage application after 14-day growth, evaluated three weeks after application; for Herbicidal effect by foliage application, G: green foxtail: amount of applied herbicide 320 g/ha
In short: as §2

[11] = system: Chinese sprangletop; assay: Test Example 3: herbicidal effect by foliage application, Wagner pot (Table 18, symbol D); type: in vivo, chinese sprangletop (Leptochloa chinensis); conditions: 320 g/ha
In short: as §4

[12] = system: persian speedwell; assay: Test Example 4: herbicidal effect by soil treatment (Table 19, symbol R); type: in vivo, Persian speedwell (Veronica persica); conditions: amount of applied herbicide 320 g/ha
In short: as §1

[13] = system: lambsquarters; assay: Test Example 4: herbicidal effect by soil treatment (Table 19, symbol O); type: in vivo, lambsquarters (Chenopodium album); conditions: amount of applied herbicide 320 g/ha
In short: as §1

[14] = system: Italian ryegrass; assay: Test Example 4: herbicidal effect by soil treatment (Table 19, symbol K); type: in vivo, Italian ryegrass (Lolium multiflorum); conditions: amount of applied herbicide 320 g/ha
In short: as §1

[15] = system: oval-leafed pondweed; assay: Test Example 1: herbicidal activity, application before weed generation under submerged conditions (Table 16, symbol C); type: in vivo, oval-leafed pondweed (Monochoria vaginalis); conditions: amount of applied herbicide 320 g/ha
In short: as §3

[16] = system: Italian ryegrass; assay: Test Example 5: herbicidal effect by foliage application, plastic box (Table 20, symbol K); type: in vivo, Italian ryegrass (Lolium multiflorum); conditions: foliage application after 14-day growth, evaluated three weeks after application; for Herbicidal effect by foliage application, K: Italian ryegrass: amount of applied herbicide 320 g/ha
In short: as §2

Row | SMILES | Herbicidal effect by soil treatment, L: windgrass [1] | Herbicidal effect, A: late watergrass [3] | Herbicidal effect by soil treatment, H: barnyard grass [7] | herbicidal effect on barnyard grass (H) [9] | herbicidal effect on Chinese sprangletop (D) [11] | Herbicidal effect by soil treatment, R: persian speedwell [12] | Herbicidal effect by soil treatment, O: lambsquarters [13] | Herbicidal effect by soil treatment, K: Italian ryegrass [14] | Herbicidal effect, C: oval-leafed pondweed [15] | Herbicidal effect by foliage application, M: velvetleaf [2] | Herbicidal effect by foliage application, L: windgrass [4] | Herbicidal effect by foliage application, R: persian speedwell [5] | Herbicidal effect by foliage application, O: lambsquarters [6] | Herbicidal effect by foliage application, F: southern crabgrass [8] | Herbicidal effect by foliage application, G: green foxtail [10] | Herbicidal effect by foliage application, K: Italian ryegrass [16] | further results
1 | CCCC(=O)Oc1c(C)nn(C)c(=O)c1-c1c(-c2ccc(SC)cc2)sc2c(F)cccc12 [4-051] | 0 (Herbicidal rate of 5% or less (almost no effect)) | 4 (Herbicidal rate of 70% or more and less than 90%) | 0 (Herbicidal rate of 5% or less (almost no effect)) | 5 (Herbicidal rate of 90% or more (almost completely withered)) | 3 (Herbicidal rate of 40% or more and less than 70%) | 5 (Herbicidal rate of 90% or more (almost completely withered)) | 4 (Herbicidal rate of 70% or more and less than 90%) | 4 (Herbicidal rate of 70% or more and less than 90%) | 0 (Herbicidal rate of 5% or less (almost no effect)) | – | – | – | – | – | – | – | herbicidal effect on M: velvetleaf (evaluation grade 0-5) ([2]; 320 g/ha): 5 (Herbicidal rate of 90% or more (almost completely withered)); herbicidal effect on L: windgrass (evaluation grade 0-5) ([4]; 320 g/ha): 5 (Herbicidal rate of 90% or more (almost completely withered)); herbicidal effect on R: persian speedwell (evaluation grade 0-5) ([5]; 320 g/ha): 5 (Herbicidal rate of 90% or more (almost completely withered)); herbicidal effect on O: lambsquarters (evaluation grade 0-5) ([6]; 320 g/ha): 5 (Herbicidal rate of 90% or more (almost completely withered)); herbicidal effect on F: southern crabgrass (evaluation grade 0-5) ([8]; 320 g/ha): 0 (Herbicidal rate of 5% or less (almost no effect)); herbicidal effect on G: green foxtail (evaluation grade 0-5) ([10]; 320 g/ha): 3 (Herbicidal rate of 40% or more and less than 70%); herbicidal effect on K: Italian ryegrass (evaluation grade 0-5) ([16]; 320 g/ha): 4 (Herbicidal rate of 70% or more and less than 90%)
2 | Cc1nn(C)c(=O)c(-c2c(-c3ccccc3OC(F)(F)F)sc3c(Cl)cccc23)c1O [4-076] | 0 (Herbicidal rate of 5% or less (almost no effect)) | 0 (Herbicidal rate of 5% or less (almost no effect)) | 0 (Herbicidal rate of 5% or less (almost no effect)) | 4 (Herbicidal rate of 70% or more and less than 90%) | 3 (Herbicidal rate of 40% or more and less than 70%) | 3 (Herbicidal rate of 40% or more and less than 70%) | 3 (Herbicidal rate of 40% or more and less than 70%) | 0 (Herbicidal rate of 5% or less (almost no effect)) | 0 (Herbicidal rate of 5% or less (almost no effect)) | 4 (Herbicidal rate of 70% or more and less than 90%) | 0 (Herbicidal rate of 5% or less (almost no effect)) | 5 (Herbicidal rate of 90% or more (almost completely withered)) | 4 (Herbicidal rate of 70% or more and less than 90%) | 1 (Herbicidal rate of 5% or more and less than 20%) | 4 (Herbicidal rate of 70% or more and less than 90%) | 0 (Herbicidal rate of 5% or less (almost no effect)) | –
3 | COc1ccc(-c2sc3c(C)cccc3c2-c2c(O)c(C)nn(C)c2=O)cc1 [4-110] | 0 (Herbicidal rate of 5% or less (almost no effect)) | 5 (Herbicidal rate of 90% or more (almost completely withered)) | 0 (Herbicidal rate of 5% or less (almost no effect)) | 5 (Herbicidal rate of 90% or more (almost completely withered)) | 0 (Herbicidal rate of 5% or less (almost no effect)) | 4 (Herbicidal rate of 70% or more and less than 90%) | 5 (Herbicidal rate of 90% or more (almost completely withered)) | 5 (Herbicidal rate of 90% or more (almost completely withered)) | 4 (Herbicidal rate of 70% or more and less than 90%) | 5 (Herbicidal rate of 90% or more (almost completely withered)) | 4 (Herbicidal rate of 70% or more and less than 90%) | 5 (Herbicidal rate of 90% or more (almost completely withered)) | 5 (Herbicidal rate of 90% or more (almost completely withered)) | 1 (Herbicidal rate of 5% or more and less than 20%) | 3 (Herbicidal rate of 40% or more and less than 70%) | 5 (Herbicidal rate of 90% or more (almost completely withered)) | –
